In patent publication US20160176867A1, “MODIFIED BET-PROTEIN-INHIBITING DIHYDROQUINOXALINONES AND DIHYDROPYRIDOPYRAZINONES” (BAYER PHARMA AKTIENGESELLSCHAFT, priority 2013, published 2016):

Columns and labels:
[1] = molecular target: T1, BRD4 bromo domain 2 [BRD4(2)] (Homo sapiens, UniProt O60885); test: BRD4/acetylated peptide H4 binding assay (TR-FRET), BRD4 bromo domain 2; settings: inhibition of BRD4(2)/Ac-H4 peptide interaction
T1 construct: N-terminally His6-tagged BRD4(2) (amino acids 357-445); made in house; host or cells: E. coli
Outline: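 IC50 comes from a 4-parameter fit over 0.1 nM–20 μM in duplicate, normalised to DMSO and no-protein controls. TR-FRET (Eu-streptavidin/anti-His-XL665) tracks His-tagged BRD4(2) 357-445 at 100 nM binding Ac-H4 peptide in HEPES pH 7.5 buffer. Incubation was 1 h at 22 °C, then at 4 °C ≥3 h up to overnight.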

B16F10 cells = test: Cell proliferation assay (alamarBlue), B16F10; type: cell-based; settings: Mus musculus, B16-F10; B16F10 (melanoma, BRAF wild-type), 96 hours
Outline: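 B16F10 cells in DMEM with 10% FCS were exposed to seven concentrations from 1E-5 to 1E-8 M for 96 hours at 37 °C. Viability was read with alamarBlue (ex 530/em 590 nm), and day-0 signal was subtracted. IC50 was derived relative to buffer-treated cells.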

MOLP-8 cells = test: Cell proliferation assay (alamarBlue), MOLP-8; type: cell-based; settings: Homo sapiens; MOLP-8 (multiple myeloma), 120 hours
Outline: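 MOLP-8 cells plated at 4000 cells/well in RPMI1640 with 20% FCS, read after overnight culture, then treated with dilutions from 1E-5 to 1E-8 M for 120 hours at 37° C. Viability by alamarBlue fluorescence (ex 530/em 590 nm); initial reads subtracted, compared with buffer-treated cells, and IC50 calculated for 50% proliferation inhibition.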

| Structure (SMILES) | IC50 [1] | IC50 (B16F10 cells) | IC50 (MOLP-8 cells) |
| --- | --- | --- | --- |
| C[C@@H]1C(=O)N(C)c2ccc(Nc3cccc(C(=O)N4CCN(C)CC4)c3)nc2N1Cc1ccccc1 [Example 75] | 79 nM | 381 nM | 133 nM |
| CC(C)N1c2nc(Nc3cccc(C(=O)N4CCN(C)CC4)c3)ccc2N(C)C(=O)[C@H]1C [Example 77, (3R)-4-isopropl-1,3-dimethyl-6-({3-[(4-methylpiperazin-1-yl)carbonyl]phenyl}-amino)-3,4-dihydro-pyrido[2,3-b]pyrazin-2(1H)-one] | 118 nM | 973 nM | 494 nM |
| CC(C)N1c2nc(Nc3cccc(C(=O)N[C@H]4CC[C@H](N5CCN(CC6CC6)CC5)CC4)c3)ccc2N(C)C(=O)[C@H]1C [Example 79, N-{trans-4-[4-(cyclo-propylmethyl)piperazin-1-yl]cyclohexyl}-3-{[(3R)-4-isopropyl-1,3-dimethyl-2-oxo-1,2,3,4-tetrahydropyrido[2,3-b]pyrazin-6-yl]amino}benzamide] | 116 nM | 478 nM | 77 nM |
| CC(C)N1c2nc(Nc3cccc(C(=O)N4CCN(CC5CC5)CC4)c3)ccc2N(C)C(=O)[C@H]1C [Example 88, (3R)-6-[(3-{[4-(cyclo-propylmethyl)piperazin-1-yl]carbonyl}phenyl)amino]-4-isopropyl-1,3-dimethyl-3,4-dihydropyrido[2,3-b]pyrazin-2(1H)-one] | 177 nM | 1620 nM | 876 nM |
| C[C@@H]1C(=O)N(C)c2ccc(Nc3cccc(C(=O)N[C@H]4CC[C@H](N5CCN(CC6CC6)CC5)CC4)c3)nc2N1c1ccc(F)cc1 [Example 93] | 2450 nM | 1180 nM | 800 nM |
| C[C@@H]1C(=O)N(C)c2ccc(Nc3cccc(S(=O)(=O)N4CC5(CCC5)C4)c3)nc2N1C1CCNCC1 [Example 122, (3R)-6-{[3-(2-Azaspiro[3.3]hept-2-ylsulphonyl)phenyl]amino}-1,3-dimethyl-4-(piperidin-4-yl)-3,4-dihydropyrido[2,3-b]pyrazin-2(1H)-one] | 94 nM | 1840 nM | 493 nM |
| C[C@@H]1C(=O)N(C)c2ccc(Nc3cccc(S(=O)(=O)N(C)C)c3)nc2N1C1CCNCC1 [Example 123, 3-{[(3R)-1,3-dimethyl-2-oxo-4-(piperidin-4-yl)-1,2,3,4-tetrahydropyrido[2,3-b]pyrazin-6-yl]amino}-N,N-dimethylbenzene-sulphonamide] | 62 nM | 2500 nM | 169 nM |
| C[C@@H]1C(=O)N(C)c2ccc(Nc3cccc(S(=O)(=O)NC4CCN(C)CC4)c3)nc2N1C1CCNCC1 [Example 124, 3-{[(3R)-1,3-dimethyl-2-oxo-4-(piperidin-4-yl)-1,2,3,4-tetrahydropyrido[2,3-b]pyrazin-6-yl]amino}-N-(1-methylpiperidin-4-yl)benzenesulphonamide] | 46 nM | > 20000 nM | > 20000 nM |
| C[C@@H]1C(=O)N(C)c2ccc(Nc3cccc(S(=O)(=O)N4CCN(C)CC4)c3)nc2N1C1CCNCC1 [Example 125, (3R)-1,3-dimethyl-6-({3-[(4-methylpiperazin-1-yl)sulphonyl]phenyl}amino)-4-(piperidin-4-yl)-3,4-dihydropyrido[2,3-b]pyrazin-2(1H)-one] | 44 nM | > 10000 nM | 719 nM |
| C[C@@H]1C(=O)N(C)c2ccc(Nc3cccc(S(=O)(=O)N4CCN(CC(F)(F)F)CC4)c3)nc2N1C1CCNCC1 [Example 126, (3R)-1,3-dimethyl-4-(piperidin-4-yl)-6-[(3-{[4-(2,2,2-trifluoroethyl)piperazin-1-yl]sulphonyl}phenyl)amino]-3,4-dihydropyrido[2,3-b]pyrazin-2(1H)-one] | 86 nM | 1160 nM | 130 nM |
